Data taken from the supplement of paper PMC10307832.

Experiments:
Test in all cases: relative viability (nuclei count vs DMSO), 5 days (fraction); higher = more cells survive
Zebularine + Phenformin = compound: O=c1ncccn1[C@@H]1O[C@H](CO)[C@@H](O)[C@H]1O [Zebularine] + N=C(N)NC(=N)NCCc1ccccc1 [Phenformin] (partner 250 µM)
How it was run: (§1)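 Each reported value is a median over duplicate plates. It expresses relative viability: treated-well nuclei count divided by vehicle-well nuclei count. Lung cancer cell lines in 1536-well plates were dosed by pin tool a day after seeding, alone with one drug or with a fixed anchor-drug dose plus five library-drug doses (not always all listed) in √10 steps, and nuclei were counted after 5 days.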

BI-D1870 + Alpelisib = compound: CC(C)CCN1c2nc(Nc3cc(F)c(O)c(F)c3)ncc2N(C)C(=O)C1C [BI-D1870] + Cc1nc(NC(=O)N2CCC[C@H]2C(N)=O)sc1-c1ccnc(C(C)(C)C(F)(F)F)c1 [Alpelisib] (partner 2 µM)
How it was run: as §1

Zebularine + Foretinib = compound: O=c1ncccn1[C@@H]1O[C@H](CO)[C@@H](O)[C@H]1O [Zebularine] + COc1cc2c(Oc3ccc(NC(=O)C4(C(=O)Nc5ccc(F)cc5)CC4)cc3F)ccnc2cc1OCCCN1CCOCC1 [Foretinib] (partner 0.25 µM)
How it was run: as §1

BI-D1870 + Dasatinib = compound: CC(C)CCN1c2nc(Nc3cc(F)c(O)c(F)c3)ncc2N(C)C(=O)C1C [BI-D1870] + Cc1nc(Nc2ncc(C(=O)Nc3c(C)cccc3Cl)s2)cc(N2CCN(CCO)CC2)n1 [Dasatinib] (partner 0.075 µM)
How it was run: as §1

| Cell Line | relative viability (Zebularine + Phenformin; first compound 1 µM) | relative viability (Zebularine + Phenformin; first compound 3.162 µM) | relative viability (Zebularine + Phenformin; first compound 10 µM) | relative viability (Zebularine + Phenformin; first compound 31.62 µM) | relative viability (Zebularine + Phenformin; first compound 100 µM) | relative viability (BI-D1870 + Alpelisib; first compound 0.04 µM) | relative viability (BI-D1870 + Alpelisib; first compound 0.1265 µM) | relative viability (BI-D1870 + Alpelisib; first compound 0.4 µM) | relative viability (BI-D1870 + Alpelisib; first compound 1.265 µM) | relative viability (BI-D1870 + Alpelisib; first compound 4 µM) | relative viability (Zebularine + Foretinib; first compound 1 µM) | relative viability (Zebularine + Foretinib; first compound 3.162 µM) | relative viability (Zebularine + Foretinib; first compound 31.62 µM) | relative viability (Zebularine + Foretinib; first compound 100 µM) | relative viability (BI-D1870 + Dasatinib; first compound 0.04 µM) | relative viability (BI-D1870 + Dasatinib; first compound 0.1265 µM) | relative viability (BI-D1870 + Dasatinib; first compound 0.4 µM) | relative viability (BI-D1870 + Dasatinib; first compound 1.265 µM) | relative viability (BI-D1870 + Dasatinib; first compound 4 µM) | relative viability (Zebularine + Foretinib; first compound 10 µM) |
| --- | --- | --- | --- | --- | --- | --- | --- | --- | --- | --- | --- | --- | --- | --- | --- | --- | --- | --- | --- | --- |
| 201T | 0.527 | 0.485 | 0.327 | 0.492 | 0.368 | 1 | 0.935 | 0.976 | 1 | 0.951 | 1.16 | 1.14 | 0.973 | 0.32 | 0.59 | 0.569 | 0.571 | 0.548 | 0.544 | – |
| A549 | 0.209 | 0.171 | 0.169 | 0.131 | 0.122 | 0.907 | 0.639 | 0.891 | 0.609 | 0.477 | 0.898 | 0.996 | 0.855 | 0.0887 | – | – | – | – | – | 0.743 |
| A-427 | 0.361 | 0.302 | 0.262 | 0.279 | 0.213 | 1.13 | 1.02 | 0.992 | 1.12 | 1.16 | 1.22 | 0.965 | 0.468 | 0.232 | 0.775 | 0.593 | 0.706 | 0.756 | 0.793 | 0.579 |
| ABC-1 | 0.237 | 0.229 | 0.255 | 0.179 | 0.222 | 1.18 | 0.972 | 1.12 | 1.19 | 0.829 | 1.16 | 1.11 | 0.783 | 0.473 | 0.598 | 0.53 | – | 0.577 | 0.409 | 0.681 |
| BEN | 0.285 | 0.242 | 0.276 | 0.251 | 0.202 | 1.1 | 0.914 | 1 | 1.13 | 0.884 | 0.648 | 0.44 | 0.336 | 0.194 | 0.291 | 0.293 | 0.349 | 0.38 | 0.304 | 0.341 |
| CAL-12T | 0.569 | 0.464 | 0.535 | 0.583 | 0.391 | 1.53 | 1.14 | 1.11 | 1.05 | 0.793 | 1.2 | 1.09 | 1.15 | 0.671 | 0.489 | 0.272 | 0.411 | 0.512 | 0.176 | 0.931 |
| COR-L23 | 0.468 | 0.438 | 0.312 | 0.284 | 0.165 | 0.978 | 0.731 | 0.875 | 0.722 | 0.449 | 1.11 | 0.98 | 0.513 | 0.157 | 0.58 | 0.414 | 0.504 | 0.565 | 0.434 | 0.621 |
| COR-L 105 | 0.581 | 0.488 | 0.314 | 0.575 | 0.53 | 1.2 | 0.803 | 1.29 | 1.09 | 1.05 | 1.02 | 0.938 | 1.33 | 0.91 | 0.303 | 0.294 | 0.485 | 0.322 | 0.384 | 0.755 |
| Calu-6 | – | – | – | – | – | 1 | 0.843 | 0.951 | 0.7 | 0.644 | 0.959 | 0.84 | 0.798 | 0.275 | – | – | – | – | – | 0.702 |
| ChaGo-K-1 | 0.51 | 0.458 | 0.278 | 0.25 | 0.204 | – | – | – | – | – | 0.939 | 0.824 | 0.252 | 0.203 | 0.662 | 0.516 | 0.606 | 0.549 | 0.51 | 0.337 |
| EBC-1 | – | – | – | – | – | 0.925 | 0.625 | 0.786 | 0.475 | 0.297 | 0.102 | 0.105 | 0.0884 | 0.109 | – | – | – | – | – | 0.0888 |
| EKVX | 0.238 | 0.248 | 0.218 | 0.238 | 0.251 | 0.957 | 0.759 | 0.85 | 0.898 | 0.664 | 0.893 | 0.624 | 0.753 | 0.75 | 0.719 | 0.456 | 0.522 | 0.554 | 0.454 | 0.731 |
| EMC-BAC-2 | 0.656 | 0.569 | 0.334 | 0.662 | 0.516 | 0.815 | 0.649 | 0.723 | 0.765 | 0.69 | 1.09 | 1.02 | 1.04 | 1.03 | 0.344 | 0.326 | 0.377 | 0.316 | 0.296 | 0.856 |
| EPLC-272H | 0.272 | 0.286 | 0.227 | 0.255 | 0.238 | 0.967 | 0.878 | 0.836 | 1.01 | 0.953 | 0.958 | 0.591 | 0.631 | 0.468 | 0.414 | 0.38 | 0.338 | 0.364 | 0.32 | 0.6 |
| H3255 | 0.34 | 0.369 | 0.361 | 0.401 | 0.353 | 0.702 | 0.658 | 0.722 | 0.894 | 0.742 | 0.94 | 0.98 | 0.959 | 0.897 | 0.436 | 0.458 | 0.367 | 0.433 | 0.48 | 0.766 |
| HARA | 0.506 | – | – | 0.436 | 0.272 | 0.981 | 0.75 | 0.842 | 1.02 | 0.747 | 0.979 | – | 0.912 | 0.584 | 0.195 | 0.195 | 0.233 | 0.282 | 0.302 | – |
| HCC-15 | 0.532 | 0.496 | 0.247 | 0.417 | 0.308 | 0.907 | 0.812 | 0.882 | 0.861 | 0.646 | 1.21 | 1.08 | 0.861 | 0.434 | 0.656 | 0.533 | 0.582 | 0.517 | 0.287 | 0.833 |
| HCC-44 | 0.255 | 0.212 | 0.145 | 0.144 | 0.157 | 0.911 | 0.817 | 0.846 | 0.695 | 0.595 | – | – | – | – | – | – | – | – | – | – |
